Experimental findings from US20230183228A1, “SUBSTITUTED PYRAZOLYL COMPOUNDS AND METHODS OF USE THEREOF” (Chinook Therapeutics Canada, Inc., priority 2020, published 2023) are described below.

A word on the pIC50: it is −log10 of the IC50, conventionally taken in molar units.

Data set [1] deals with T1, human recombinant C-terminal His-tagged LDHA (Homo sapiens, UniProt P00338).
T1 construct: His (C)
The data set is described as follows: Human LDHA enzyme assay. Type of data set: biochemical. Conditions: 50 μM pyruvate, 50 μM NADH, no HSA. The procedure:
(§1) Compounds were dissolved in DMSO and preincubated with human recombinant C-terminal His-tagged LDHA (0.070 μg/mL) for 10 min at room temperature in assay buffer consisting 50 mM Tris, pH 7.5 and 100 mM NaCl in black walled, clear bottom, non-binding 96-well plates. Equal volumes of substrate solution containing 100 μM of pyruvate and 100 μM of NADH in assay buffer was added to each well (final concentration 0.035 μg/mL enzyme, 50 μM pyruvate, 50 μM NADH, and 1% DMSO). For human serum albumin (HSA) shift assay, the compounds were preincubated with the enzyme in assay buffer containing 20% HSA before substrate addition (final concentration 10% HSA). The reaction was monitored at 340 nm on a plate reader (Molecular Devices) in kinetic mode for 15 min. The rate of the reaction was determined by plotting absorbance vs time.

Data set [2] deals with T1, human recombinant C-terminal His-tagged LDHA. The data set is described as follows: Human LDHA enzyme assay, human serum albumin (HSA) shift. The following applies: final concentration 10% HSA. In kind it is biochemical. As for the experimental part: as §1
For data set [3], the system named is fresh primary mouse hepatocytes. The data set is described as follows: Primary mouse hepatocyte assay (lactate production). Type of data set: cell-based. The procedure: Compounds were evaluated in an ex vivo assay consisting of fresh primary mouse hepatocytes. Hepatocytes were isolated from wild type mice (C57BL/6NCrl from Charles River Labs) using a two-step collagenase perfusion technique which involves a sequential perfusion of anesthetized mice with Hanks' balanced salt solution and collagenase. Following isolation, viable wild type hepatocytes (0.1 M cells/well) were incubated with test compound in presence of pyruvate and compound potency was evaluated by measuring the lactate produced by the cells using liquid chromatography coupled to mass spectrometry. Chromatographic separation was achieved on an XDB-C18 4.6×50 mm column (Agilent, Cat #927975-902) at a flow rate of 1 mL/min Mobile phase A consisted of 0.1% formic acid in water and mobile phase B consisted of acetonitrile. A gradient program was initiated starting at 5% B which was held for 1 minutes, then ramped from 5% to 95% B over 1 minute. After holding at 95% B for 1 minute, the program changed back to 5% B. The column was equilibrated with 5% B for […] before the next injection. The mass spectrometer was operated in negative mode with electrospray ionization. The following transition along with their collision energy (CE) were used: 89→43 (CE: −16 V) for lactate and 92→45 (CE: −16 V) for ^13C3-Lactate (internal standard).

Data set [4] in a line: Liver and plasma concentrations in c57/bl6 mice. Type of data set: in vivo. Conditions: 20 mg/kg PO. The procedure:
[The procedure below names another organism; the source says it served here with some conditions changed.] (§2) Plasma and liver (target organ) concentrations of test compounds were determined in rats following a single per os (PO) administration of the test compounds. Male Sprague Dawley rats (6-8 weeks of age, Charles River Labs) were fasted overnight and a single dose of test compounds (10 mg/kg; as a suspension in 0.5% methyl cellulose) was administered by PO gavage. Rats were then sacrificed at 4 and 24 h after administration of the test compounds, and plasma and liver tissue samples were collected. Liver tissue samples were homogenized in 5 volumes of water:acetonitrile (50/50; v/v) mixture using a bead mill homogenizer. Plasma and liver homogenate samples were processed by protein precipitation using acetonitrile and the concentrations of the test compounds were determined by liquid chromatography-tandem mass spectrometry (SciEx triple quad 5500+ with Exion UPLC).
(§3) Liver and plasma exposures at the 4 h and 24 h timepoints for the various compounds are described in Table 5 below. Measured compound concentrations are as follows: ++++>10 μM; 10 μM≥+++>5 μM; 5 μM≥++>1 μM; 1 μM≥+>0.25 μM; and 0.25 μM≥−.

Data set [5] is described as follows: Liver-targeted tissue distribution profile study in rats. In kind it is in vivo, Sprague Dawley rats. The following applies: rat, single 10 mg/kg PO. As for the experimental part: as §2, §3
The mark [6] stands for this setting: Run at 0.4M cells/well concentration of hepatocytes.

pIC50: −log10 of the molar value. Marks after values point to notes of the source that are not given here.

With `NS(=O)(=O)c1ccc(Cc2c(-c3ccc(F)c(OC(F)F)c3)nn(-c3nc(C(=O)O)cs3)c2CC2CC2)cc1F` [Example 13, 2-(5-(cyclopropylmethyl)-3-(3-(difluoromethoxy)-4-fluorophenyl)-4-(3-fluoro-4-sulfamoylbenzyl)-1H-pyrazol-1-yl)thiazole-4-carboxylic acid], the pIC50 in data set [1] was > 9.00; in data set [2], 8.00 to 9.00; in data set [3] (setting [6]), 6.00 to 6.60. In data set [4] (liver), the “Measured Compound Concentrations Liver - 4 h” value is recorded as “++* (5 μM≥++>1 μM)”. For the same molecule, the “Measured Compound Concentrations Liver - 24 h” value in data set [4] (liver, 24 h) was “−* (0.25 μM≥−)”. In addition, the “Measured Compound Concentrations Plasma - 4 h” value in data set [4] (plasma) is listed as “−* (0.25 μM≥−)”. The “Measured Compound Concentrations Plasma - 24 h” value in data set [4] (plasma, 24 h) was “−* (0.25 μM≥−)”.

`NS(=O)(=O)c1ccc(Cc2c(-c3ccc(F)cc3)nn(-c3nc(C(=O)O)cs3)c2CCC2CC2)cc1` [Example 6, 2-(5-(2-cyclopropylethyl)-3-(4-fluorophenyl)-4-(4-sulfamoylbenzyl)-1H-pyrazol-1-yl)thiazole-4-carboxylic acid]: the values for the pIC50 in data set [1], in data set [2] and in data set [3] (setting [6]) were > 9.00, 7.00 to 8.00 and 6.00 to 6.60, respectively. Moreover, the “Measured Compound Concentrations Liver - 4 h” value in data set [4] (liver) is “++* (5 μM≥++>1 μM)”. In addition, the “Measured Compound Concentrations Plasma - 4 h” value in data set [4] (plasma) is “−* (0.25 μM≥−)”.

Regarding `NS(=O)(=O)c1ccc(Cc2c(-c3cccc(OC(F)(F)F)c3)nn(-c3nc(C(=O)O)cs3)c2CC2CC2)cc1F` [Example 19, 2-(5-(cyclopropylmethyl)-4-(3-fluoro-4-sulfamoylbenzyl)-3-(3-(trifluoromethoxy)phenyl)-1H-pyrazol-1-yl)thiazole-4-carboxylic acid], the pIC50 in data set [1] was > 9.00. In addition, in data set [2], the negative logarithm of the IC50 (pIC50) was 8.00 to 9.00. For the same molecule, the pIC50 in data set [3] (0.1 M cells/well) was 6.60 to 7.00. In data set [5], the “Measured Compound Concentrations Liver - 4 h” value is reported as “+++ (10 μM≥+++>5 μM)”, the “Measured Compound Concentrations Liver - 24 h” value is on record as “− (0.25 μM≥−)”, the “Measured Compound Concentrations Plasma - 4 h” value is reported as “− (0.25 μM≥−)” and the “Measured Compound Concentrations Plasma - 24 h” value was “− (0.25 μM≥−)”.

With `N#Cc1cc(-c2nn(-c3nc(C(=O)O)cs3)c(CC3CC3)c2Cc2ccc(S(N)(=O)=O)c(F)c2)ccc1F` [Example 2, 2-(3-(3-Cyano-4-fluorophenyl)-5-(cyclopropylmethyl)-4-(3-fluoro-4-sulfamoylbenzyl)-1H-pyrazol-1-yl)thiazole-4-carboxylic acid], in data set [1], the negative-log IC50 (pIC50) was > 9.00. Also, the pIC50 in data set [2] was 8.00 to 9.00. The negative logarithm of the IC50 (pIC50) in data set [3] (0.1 M cells/well) is > 7.00. In data set [5], the “Measured Compound Concentrations Liver - 4 h” value was “+++ (10 μM≥+++>5 μM)”, the “Measured Compound Concentrations Liver - 24 h” value was “− (0.25 μM≥−)”, the “Measured Compound Concentrations Plasma - 4 h” value is on record as “− (0.25 μM≥−)” and the “Measured Compound Concentrations Plasma - 24 h” value was “− (0.25 μM≥−)”.

In the case of `NS(=O)(=O)c1ccc(Cc2c(-c3cccc(Cl)c3)nn(-c3nc(C(=O)O)cs3)c2CC2CC2)cc1F` [Example 17, 2-(3-(3-chlorophenyl)-5-(cyclopropylmethyl)-4-(3-fluoro-4-sulfamoylbenzyl)-1H-pyrazol-1-yl)thiazole-4-carboxylic acid], in data set [1], the negative-log IC50 (pIC50) was > 9.00. The negative logarithm of the IC50 (pIC50) in data set [2] was 8.00 to 9.00. Also, the negative-log IC50 (pIC50) in data set [3] (0.1 M cells/well) was > 7.00. For the same molecule, in data set [5], the “Measured Compound Concentrations Liver - 4 h” value is listed as “+++ (10 μM≥+++>5 μM)”, the “Measured Compound Concentrations Liver - 24 h” value is “− (0.25 μM≥−)”, the “Measured Compound Concentrations Plasma - 4 h” value is given as “− (0.25 μM≥−)” and the “Measured Compound Concentrations Plasma - 24 h” value is “− (0.25 μM≥−)”.

In the case of `N#Cc1cccc(-c2nn(-c3nc(C(=O)O)cs3)c(CC3CC3)c2Cc2ccc(S(N)(=O)=O)c(F)c2)c1` [Example 11, 2-(3-(3-cyanophenyl)-5-(cyclopropylmethyl)-4-(3-fluoro-4-sulfamoylbenzyl)-1H-pyrazol-1-yl)thiazole-4-carboxylic acid], in data set [1], the negative-log IC50 (pIC50) is > 9.00. In addition, in data set [2], the pIC50 was 8.00 to 9.00. The pIC50 in data set [3] (0.1 M cells/well) was > 7.00. In addition, in data set [5], the “Measured Compound Concentrations Liver - 4 h” value is listed as “+++ (10 μM≥+++>5 μM)”, the “Measured Compound Concentrations Liver - 24 h” value is given as “− (0.25 μM≥−)”, the “Measured Compound Concentrations Plasma - 4 h” value is “− (0.25 μM≥−)” and the “Measured Compound Concentrations Plasma - 24 h” value is listed as “− (0.25 μM≥−)”.

Turning to `NS(=O)(=O)c1ccc(Cc2c(-c3ccc(Cl)cc3)nn(-c3nc(C(=O)O)cs3)c2CC2CC2)cc1F` [Example 16, 2-(3-(4-chlorophenyl)-5-(cyclopropylmethyl)-4-(3-fluoro-4-sulfamoylbenzyl)-1H-pyrazol-1-yl)thiazole-4-carboxylic acid], the pIC50 in data set [1] is > 9.00. The negative-log IC50 (pIC50) in data set [2] is 7.00 to 8.00. For the same molecule, the pIC50 in data set [3] (setting [6]) is > 7.00. In addition, in data set [5], the “Measured Compound Concentrations Liver - 4 h” value is given as “++ (5 μM≥++>1 μM)”, the “Measured Compound Concentrations Liver - 24 h” value was “− (0.25 μM≥−)”, the “Measured Compound Concentrations Plasma - 4 h” value was “− (0.25 μM≥−)” and the “Measured Compound Concentrations Plasma - 24 h” value is “− (0.25 μM≥−)”.

`NS(=O)(=O)c1ccc(Cc2c(-c3ccc(F)cc3)nn(-c3nc(C(=O)O)co3)c2CC2CC2)cc1F` [Example 9, 2-(5-(Cyclopropylmethyl)-4-(3-fluoro-4-sulfamoylbenzyl)-3-(4-fluorophenyl)-1H-pyrazol-1-yl)oxazole-4-carboxylic acid]: the negative-log IC50 (pIC50) in data set [1] is > 9.00. For the same molecule, the negative-log IC50 (pIC50) in data set [2] was 8.00 to 9.00. Further, the pIC50 in data set [3] (setting [6]) is 6.60 to 7.00. For the same molecule, in data set [5], the “Measured Compound Concentrations Liver - 4 h” value was “++ (5 μM≥++>1 μM)”, the “Measured Compound Concentrations Liver - 24 h” value is reported as “− (0.25 μM≥−)”, the “Measured Compound Concentrations Plasma - 4 h” value is “− (0.25 μM≥−)” and the “Measured Compound Concentrations Plasma - 24 h” value is listed as “− (0.25 μM≥−)”.

Regarding `NS(=O)(=O)c1ccc(Cc2c(-c3ccccc3F)nn(-c3nc(C(=O)O)cs3)c2CC2CC2)cc1F` [Example 25], the negative-log IC50 (pIC50) in data set [1] is > 9.00. Moreover, the pIC50 in data set [2] was 7.00 to 8.00. In data set [3] (0.1 M cells/well), this molecule showed a pIC50 of 6.60 to 7.00. Further, in data set [5], the “Measured Compound Concentrations Liver - 4 h” value was “+++ (10 μM≥+++>5 μM)”, the “Measured Compound Concentrations Liver - 24 h” value is recorded as “− (0.25 μM≥−)”, the “Measured Compound Concentrations Plasma - 4 h” value is reported as “− (0.25 μM≥−)” and the “Measured Compound Concentrations Plasma - 24 h” value is recorded as “− (0.25 μM≥−)”.

Take `NS(=O)(=O)c1ccc(Cc2c(-c3ccccc3)nn(-c3nc(C(=O)O)cs3)c2CC2CC2)cc1F` [Example 20, 2-(5-(cyclopropylmethyl)-4-(3-fluoro-4-sulfamoylbenzyl)-3-phenyl-1H-pyrazol-1-yl)thiazole-4-carboxylic acid]: the pIC50 in data set [1] is > 9.00. Besides, the pIC50 in data set [2] is 8.00 to 9.00. The negative logarithm of the IC50 (pIC50) in data set [3] (0.1 M cells/well) was > 7.00. Moreover, in data set [5], the “Measured Compound Concentrations Liver - 4 h” value is “++++ (++++>10 μM)”, the “Measured Compound Concentrations Liver - 24 h” value was “− (0.25 μM≥−)”, the “Measured Compound Concentrations Plasma - 4 h” value is recorded as “− (0.25 μM≥−)” and the “Measured Compound Concentrations Plasma - 24 h” value is listed as “− (0.25 μM≥−)”.

As for `NS(=O)(=O)c1ccc(Cc2c(-c3ccc(F)c(Cl)c3)nn(-c3nc(C(=O)O)cs3)c2CC2CC2)cc1F` [Example 8, 2-(3-(3-Chloro-4-fluorophenyl)-5-(cyclopropylmethyl)-4-(3-fluoro-4-sulfamoylbenzyl)-1H-pyrazol-1-yl)thiazole-4-carboxylic acid], the pIC50 in data set [1] is > 9.00. Besides, in data set [2], the negative-log IC50 (pIC50) was 8.00 to 9.00. The same molecule showed a negative-log IC50 (pIC50) in data set [3] (setting [6]) of 6.60 to 7.00. Further, in data set [5], the “Measured Compound Concentrations Liver - 4 h” value was “+++ (10 μM≥+++>5 μM)”, the “Measured Compound Concentrations Liver - 24 h” value is listed as “− (0.25 μM≥−)”, the “Measured Compound Concentrations Plasma - 4 h” value is “− (0.25 μM≥−)” and the “Measured Compound Concentrations Plasma - 24 h” value is listed as “− (0.25 μM≥−)”.
